“And” between values parts separate entries of the source, which are not always exact repeats. Equal entries are not always repeated.
Tests used:
[1] = tested on: Phytophthora infestans (tomato blight); format: in vivo; conditions: for dose of the active substance alone which it is necessary to apply to obtain the destruction of 90% of the pest: applied alone, tomato plants sprayed 48 hours before contamination, reading 7 days after contamination
[2] = tested on: Plasmopara viticola (vine downy mildew); assay: In vivo trial on Plasmopara viticola (vine downy mildew) by preventive treatment at 72 hours, vine cuttings Chardonnay variety
Experimental: (§1) A 60 mg suspension is prepared comprising compounds A and B in a liquid mixture consisting of 0.3 ml of a surface-active agent (oleate of a polyoxyethylenated derivative of sorbitan) diluted 10% in water and of 60 ml of water.
(§2) Vine cuttings (Vitis vinifera) Chardonnay variety, are cultivated in pots. When these plants are 2 months old (8 to 10-leaf stage, height 10 to 15 cm), they are treated by spraying using the above suspension.
(§3) Plants used as controls are treated with a similar suspension but not containing any active substance (formulation blank).
(§4) After drying for 72 hours, each plant is contaminated by spraying an aqueous Plasmopara viticola spore suspension obtained from sporulated leaves contaminated 7 days earlier. These spores are suspended in an amount of 100,000 units per cm^3.
(§5) The contaminated plants are then incubated for two days at about 18° C., in an atmosphere saturated with moisture, and then for 5 days at 20-22° C. under a relative humidity of 90-100%.

[3] = tested on: Plasmopara viticola (vine downy mildew); assay: In vivo trial on Plasmopara viticola (vine downy mildew) by preventive treatment at 24 hours, vine cuttings Chardonnay variety; conditions: dose 3.2 mg/l compound A and/or 12.5 mg/l mancozeb; contamination 24 hours after treatment
Experimental: as §1, §2, §3, §4, §5
Example 2 is repeated using as component B mancozeb, using A and B concentrations in the suspension for treating the plants equal to 3.2 and 12.5 mg/l respectively, and finally carrying out the contamination 24 hours after the treatment.
The efficacy measured, as well as the efficacy of products A and B alone measured under the same conditions, is indicated in the table below. […]

| Molecule | dose of the active substance alone which it is necessary to apply to obtain the destruction of 90% of the pest [1] | efficacy when applied alone ([1]; applied alone under the trial conditions, preventive 48 hours, 90% destruction level (FIG. 1)) | efficacy when applied alone ([2]; applied alone under the trial conditions, preventive 72 hours, 90% destruction level (FIG. 2)) | Efficacy (in %) [3] [%] | dose of the active substance alone which it is necessary to apply to obtain the destruction of 90% of the pest ([2]; applied alone, vine plants sprayed 72 hours before contamination, reading 7 days after contamination) [mg/L] |
| --- | --- | --- | --- | --- | --- |
| CCN(C)C(=O)c1ccc(C(F)(F)F)cc1-c1ccc(OC)c(OC)c1 [N-methyl-N-ethyl-2-(3,4-dimethoxyphenyl)-4-trifluoromethylbenzamide] | 166 mg/L | – | – | – | – |
| CCO[PH](=O)O [fosetyl-Al] | – | not effective | not effective | – | – |
| CSC1=N[C@@](C)(c2ccccc2)C(=O)N1Nc1ccccc1 [Compound A, (4S)-4-methyl-2-methylthio-4-phenyl-1-phenylamino-2-imidazolin-5-one] | 309 mg/L and 163 mg/L | – | – | 80.8 | 20 |
| mancozeb | – | – | – | 0 | – |
